The nature of series [1]: Stability of the substance. It counts as physicochemical.
A further series relates to rat leukemia L 5222. Description: Chemotherapeutic activity against rat Leukemia L5222. The series is classed as in vivo, rat (BD IX rats). The following applies: rat, in vivo. On the procedure: Chemotherapeutic activity of methylformylamino-CNU against rat Leukemia L5222 (CNU=chloroethyl-nitroso-urea)
The compound to be tested was solved in Chremophor EL/ethanol/physiological saline and a single dose was administered intraperitoneally into tumor inoculated BD IX rats. The experiment involved an untreated control group and a number of treated groups. The doses used and the effects of the praeterminal treatment are summarized in the following Table from which the cures (animals free of tumor after 120 days) and the increase in life span (ILS, expressed as percentage of survival of the treated test group to the untreated control group) are evident.
Considering the fact that the true measure of the effectiveness of a drug against a neoplastic desease is the ability of the drug to kill the neoplastic cells at dosages that are not toxic to the host animal and that a quantitative evaluation of drug action is usually obtained by using the L1210 leucemia system in mice, it will be realized that in this test the tumor cells are injected into the peritoneal cavity of a mouse which thereafter is treated with the drug to be tested at a very early time after the inoculation of the tumor, i.e. at the first or second day after tumor inoculation. Thus such screening is done under very favourable test conditions for the drug. Contrary thereto the administration of the drug to be tested is performed relatively late in the case of the rat leucemia L5222, i.e. at the 8th day after tumor inoculation. It must, therefore, be taken that at that time tumor cells have colonized the cerebral region, i.e. the meninges, so that cures can only be obtained if the drug has an activity high enough to kill the leucemia cells in the cerebral region in a praeterminal state. Thus by far more severe test conditions are involved when treating rat leucemia L5222 or type Yoshida sarcoma which is a tumor model and which are hard to influence by known drugs.

The test system of series [2] is Yoshida sarcoma. The series is classed as in vivo, rat (male Sprague-Dawley rats). The following applies: for M = median survival time: i.p. day 8; for effect on the survival time on retest (in words): Experiment 5, cyclophosphamide as a standard; for effect on survival time / life expectancy (in words): experiments 1-4, MeCCNU 45, morpholino-CNU 28 (exp. 3 and 5), dimethylmorpholine-CNU 45, piperidino-CNU 15, picolyl-3-CNU 25, picolyl-3-CNU.HCl 25 mg/kg; for chemotherapeutic activity against Yoshida sarcoma in the colon wall (in words): i.p. On the procedure: The chemotherapeutic activity of nitrosoureas was compared in antitumor tests using Yoshida sarcoma ascited cells implanted into the wall of the descending colon in Sprague-Dawley rats.
(§1) Male Sprague-Dawley rats were used in the experiments. Yoshida sarcome in ascites form was maintained in the same strain of rats by serial intraperitoneal injection of 0,5 ml of ascites fluid.
(§2) 3×10^6 cells were injected into the colon wall in a manner known per se. The chemotherapeutic treatment was carried out on the eighth day after implantation of the tumor cells.
(§3) Water-insoluble compounds were dissolved in Cremophor EL/ethanol/physiological saline (20:20:60: vol.%). Water-soluble substances were dissolved in physiological saline. Cremophor EL is a surfactant on the basis of polyethoxylated castor oil. All test compounds were administered introperitoneally. The nitrosoureas were applied at approximately equitoxic doses corresponding to about 80% of the acute LD50 values observed in healthy rats of the same strain over a 28-day observation period.
(§4) Each experiment involved an untreated control group and a varying number of treated groups. Individual survival times were counted as days after tumor inoculation. At the time of death a record of whether an animal was tumor-free or not was made. All animals alive 120 days after tumor inoculation were killed. Animals that according to macroscopic examination had no tumor at the end of the experiment were considered as cured. Since in a number of control rats also no tumors occurred after 120 days the differences in cures between controls and treated animals rather than absolute numbers are reported. Differences in survival were evaluated statistically by individual comparisons between treated rats and controls using a nonparametric log-rank test (Kalbfleisch and Prentice, The statistical analysis of failure time data, Wiley, New York, 1979). Numerical evaluation was performed using a computerized system.

Series [3] can be described thus: Mean animal weight / weight gain after tumor transplantation. It counts as in vivo, rat (Sprague-Dawley rats). To be noted: CP 70 (exp. 1-3), BCNU 25, MeCCNU 45 (exp. 1), picolyl-3-CNU 25, its HCl 25 (exp. 2), morpholino-CNU 28, piperidino-CNU 15 (exp. 3), dimethylmorpholino-CNU 45 mg/kg (exp. 4); for Mean animal weight on day 50: day 50 after tumor transplantation; for Mean animal weight on day 100: day 100 after tumor transplantation. On the procedure: as §1, §2, §3
In all treated animals and at all doses tested the mean weight gain was lower than in the controls. Table 3 gives the mean animal weights measured 50 and 100 days after tumor transplantation in experiments 1 to 5.

For series [4], the system named is Yoshida sarcoma. The series is classed as in vivo, rat (male Sprague-Dawley rats). The following applies: i.p.
Series [5] in a line: Toxicity in treated tumor-bearing rats (Yoshida sarcoma experiments). It counts as in vivo, rat (Sprague-Dawley rats). To be noted: at the doses tested. On the procedure:
as §1, §2, §3, §4

Setting [6] is: Experiment 3, CP 70, morpholino-CNU 28, piperidino-CNU 15 mg/kg.
[7] abbreviates: Experiment 3, CP 70, morpholino-CNU 28, piperidino-CNU 15 mg/kg, 30 initial animals each.
Setting [8] is: Experiment 5, CP 70, picolyl-3-CNU.HCl 25, morpholino-CNU 28, piperidino-CNU 15 mg/kg.
Where [9] appears, read: Experiment 5, CP 70, picolyl-3-CNU.HCl 25, morpholino-CNU 28, piperidino-CNU 15 mg/kg, 15 initial animals (picolyl-3-CNU.HCl 14).
[10] abbreviates: Experiment 5, CP 70, piperidino-CNU 15 mg/kg.

Where two headings read alike, the source gives them in different places.

As to `NNC(=O)N(CCCl)N=O` [Example 8, 1-(2-chloroethyl)-1-nitroso-3-amino-urea], the “stability (in words)” value in series [1] is reported as “slightly stable”. Further, the “stability on storage (in words)” value in series [1] (stored in the deep freezing compartment at -30° C.) was “stable for a few days”.

As for `O=NN(CCCl)C(=O)NN1CCOCC1` [Morpholino-CNU, 1-(2-chloroethyl)-1-nitroso-3-(4-morpholino)-urea], in the series on rat leukemia L 5222, the “effectiveness in rat leukemia L 5222 (in words)” value is given as “very good effectiveness”. The “tumor-free animals at the end of the experiment (in words)” value (“tumor-free animals at the end” below) with Yoshida sarcoma [2] (120 days) is listed as “large number of tumor-free animals”. Also, the “tumor-free animals at the end” value with Yoshida sarcoma [2] (120 days, listed as morpholino-CNU) is on record as “remarkable increase in tumor-free animals”. Further, in the series with Yoshida sarcoma [2] (setting [6]), the “% M (median survival time, untreated control = 100)” value is on record as greater than 686%; the “D1-120 = difference (%) between tf1-120 of treated and untreated animals” value is reported as 41%; the “D120 = difference (%) between tf120 of treated and untreated animals” value (shortened to “D120 = difference (%) between tf120”) is 34%; the “tf1-120 (%) (tf120 + animals dying of toxicity)” value (“tf1-120 (%)” for short) was 70%. In the series with Yoshida sarcoma [2] (setting [6]), the “tf120 (%) (animals surviving day 120 without tumor)” value came out at 63% and the “M = median survival time” value is recorded as greater than 120 days. Besides, in the series with Yoshida sarcoma [2] (setting [7]), the “tf1-120, No. (tf120 + animals dying of toxicity)” value was 21 and the “tf120, No. (animals surviving day 120 without tumor)” value is listed as 19. Moreover, in the series on Yoshida sarcoma [2], the “effect on the survival time on retest (in words)” value is listed as “significant increasing effect on the survival time”, the “effect on survival time / life expectancy (in words)” value is “improved the survival times significantly” and the “chemotherapeutic activity against Yoshida sarcoma in the colon wall (in words)” value (“chemotherapeutic activity” below) is “clear chemotherapeutic activity”. For the same molecule, in the series on Yoshida sarcoma [2] (setting [8]), the “% M (median survival time, untreated control = 100)” value was determined as 180%; the “D1-120 = difference (%) between tf1-120 of treated and untreated animals” value is given as 0%; the “D120 = difference (%) between tf120” value is 0%; the “M = median survival time” value came out at 18 days. In the series with Yoshida sarcoma [2] (setting [9]), the “tf1-120, No. (tf120 + animals dying of toxicity)” value is listed as 0 and the “tf120, No. (animals surviving day 120 without tumor)” value worked out at 0. Moreover, the “therapeutic results compared with methyl-CCNU / clinically established nitrosoureas (in words)” value in the series with Yoshida sarcoma [2] (Yoshida sarcoma of the rat implanted in the colon) is reported as “better therapeutic results than e.g. the compound methyl-CCNU”. For the same molecule, in the series on Yoshida sarcoma [2] (listed as morpholino-CNU), the “effect on survival time / life expectancy (in words)” value is “significant increase in survival time” and the “chemotherapeutic activity” value is given as “active”. Further, in series [3], the “Mean animal weight on day 50” value is given as 270 g and the “Mean animal weight on day 100” value is given as 270 g. For the same molecule, the “concentration reached in the distal colon (in words)” value in the series on Yoshida sarcoma [4] is reported as “reached the distal colon at chemotherapeutically effective concentrations”. For the same molecule, the “water solubility (in words)” value in “Water solubility” is recorded as “water-soluble”. Further, the “water solubility (in words)” value in the series “Water solubility” (listed as Example 2) is listed as “highly water-soluble”.

Regarding `O=NN(CCCl)C(=O)NN1CCCCC1` [Piperidino-CNU, 1-(2-chloroethyl)-1-nitroso-3-(1-piperidine)urea], in the series with rat leukemia L 5222, the “effectiveness in rat leukemia L 5222 (in words)” value is on record as “very good effectiveness”. Moreover, in the series with Yoshida sarcoma [2] (120 days), the “tumor-free animals at the end” value is reported as “remarkable increase in tumor-free animals”. The “increase in tumor-free animals (cures) above controls” value in the series on Yoshida sarcoma [2] (120 days, CP (exp. 1-3), BCNU, MeCCNU 45, dimethylmorpholine-CNU 45, piperidino-CNU 15, picolyl-3-CNU.HCl 25 mg/kg) was determined as 21%. In the series on Yoshida sarcoma [2] (setting [6]), the “% M (median survival time, untreated control = 100)” value is given as greater than 686%; the “D1-120 = difference (%) between tf1-120 of treated and untreated animals” value is on record as 21%; the “D120 = difference (%) between tf120” value was 21%; the “tf1-120 (%)” value amounted to 50%. Also, in the series with Yoshida sarcoma [2] (setting [6]), the “tf120 (%) (animals surviving day 120 without tumor)” value is reported as 50% and the “M = median survival time” value is greater than 120 days. Further, in the series on Yoshida sarcoma [2] (setting [7]), the “tf1-120, No. (tf120 + animals dying of toxicity)” value came to 15 and the “tf120, No. (animals surviving day 120 without tumor)” value is reported as 15. Also, in the series on Yoshida sarcoma [2], the “effect on the survival time on retest (in words)” value was “significant increasing effect on the survival time”, the “effect on survival time / life expectancy (in words)” value is on record as “significantly increased the survival time” and the “chemotherapeutic activity” value was “active”. Moreover, in the series with Yoshida sarcoma [2] (setting [8]), the “% M (median survival time, untreated control = 100)” value was found to be 160%; the “D1-120 = difference (%) between tf1-120 of treated and untreated animals” value is on record as 13%; the “D120 = difference (%) between tf120” value worked out at 7%; the “M = median survival time” value turned out to be 16 days. Moreover, in the series with Yoshida sarcoma [2] (setting [9]), the “tf1-120, No. (tf120 + animals dying of toxicity)” value is listed as 2 and the “tf120, No. (animals surviving day 120 without tumor)” value worked out at 1. For the same molecule, in the series with Yoshida sarcoma [2] (setting [10]), the “tf1-120 (%)” value is given as 13% and the “tf120 (%) (animals surviving day 120 without tumor)” value came to 7%. Besides, in the series on Yoshida sarcoma [2] (listed as piperidino-CNU), the “effect on survival time / life expectancy (in words)” value is listed as “significant increase in survival time”. Besides, in series [3], the “Mean animal weight on day 50” value was found to be 340 g and the “Mean animal weight on day 100” value turned out to be 410 g. For the same molecule, in series [5], the “toxicity (in words)” value is recorded as “No toxic effects were seen”. For the same molecule, the “toxicity (in words)” value in series [5] (listed as piperidino-CNU) is reported as “less toxic than cyclophosphamide”. Besides, the “concentration reached in the distal colon (in words)” value in the series on Yoshida sarcoma [4] is “reached the distal colon at chemotherapeutically effective concentrations”. Further, the “water solubility (in words)” value in the series “Water solubility” is recorded as “water-soluble”.

The record behind these values is patent US4377687A, “Analogs of 1-(2-chloroethyl)-1-nitroso-3-(cycloheyl)-urea substituted by heterocyclic rings or alkyl radicals” (Stiftung Deutsches Krebsforschungszentrum, priority 1978, dated 1983).
